Results reported in patent publication US20240299385A1 (ReWind Therapeutics NV, priority 2021, published 2024).

Target: T1, human GPR17 receptor (Homo sapiens, UniProt Q13304)
T1 construct: host or cells: HEK-293
Test: Calcium mobilization functional assay (Fluo-8, FLIPR TETRA) in HEK-293 hGPR17 (Gα-q assay)
Assay type: cell-based
Conditions: antagonism of MDL29,951 (~EC80) induced Ca2+ signal; cell line (HEK-293 hGPR17 or HEK-293 Suchi5 hGPR17) not given
Method in brief: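 Fluo-8-loaded HEK-293 hGPR17 cells (60 min dye loading, room temperature) were preincubated with compound for twenty minutes, then challenged with agonist MDL29,951 at ~EC80, 500 nM. Intracellular calcium release via Gα-q was recorded as FLIPR fluorescence for a further 2 minutes; compounds tested in duplicate.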

T1 sequence (Q13304 whole entry): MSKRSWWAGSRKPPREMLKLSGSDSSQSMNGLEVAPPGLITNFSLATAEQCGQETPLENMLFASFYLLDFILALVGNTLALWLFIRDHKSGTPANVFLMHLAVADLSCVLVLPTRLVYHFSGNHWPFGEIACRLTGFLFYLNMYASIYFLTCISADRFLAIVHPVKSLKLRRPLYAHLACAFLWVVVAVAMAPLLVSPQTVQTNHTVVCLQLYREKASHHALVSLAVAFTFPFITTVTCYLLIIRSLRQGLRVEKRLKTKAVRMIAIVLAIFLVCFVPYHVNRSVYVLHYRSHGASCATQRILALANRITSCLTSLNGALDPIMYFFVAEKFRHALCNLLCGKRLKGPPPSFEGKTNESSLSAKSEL

IC50	SMILES
< 500 nM	O=S(=O)(Nc1cc(F)c(OC(F)F)cc1F)c1c[nH]cc1Cc1ccccc1 [Cpd 271, 4-benzyl-N-[4-(difluoromethoxy)-2,5-difluoro-phenyl]-1H-pyrrole-3-sulfonamide]
< 500 nM	O=S(=O)(Nc1cc(F)c(C(F)(F)F)cc1F)c1c[nH]c(-c2cccs2)c1 [Cpd 272, N-[2,5-difluoro-4-(trifluoromethyl)phenyl]-5-(2-thienyl)-1H-pyrrole-3-sulfonamide]
< 500 nM	O=S(=O)(Nc1cc(F)c(C(F)(F)F)cc1F)c1c[nH]c(-c2ccsc2)c1 [Cpd 273, N-[2,5-difluoro-4-(trifluoromethyl)phenyl]-5-(3-thienyl)-1H-pyrrole-3-sulfonamide]
500 to 5000 nM	Cc1ccc(-c2cc(S(=O)(=O)Nc3cc(F)c(C(F)(F)F)cc3F)c[nH]2)s1 [Cpd 274, N-[2,5-difluoro-4-(trifluoromethyl)phenyl]-5-(5-methyl-2-thienyl)-1H-pyrrole-3-sulfonamide]
< 500 nM	O=S(=O)(Nc1cc(F)c(C(F)(F)F)cc1F)c1c[nH]c(-c2ccco2)c1 [Cpd 275, N-[2,5-difluoro-4-(trifluoromethyl)phenyl]-5-(2-furyl)-1H-pyrrole-3-sulfonamide]
< 500 nM	O=S(=O)(Nc1cc(F)c(C(F)(F)F)cc1F)c1c[nH]c(-c2ccoc2)c1 [Cpd 276, N-(2,5-difluoro-4-(trifluoromethyl)phenyl)-5-(furan-3-yl)-1H-pyrrole-3-sulfonamide]
500 to 5000 nM	Cn1cncc1-c1cc(S(=O)(=O)Nc2cc(F)c(C(F)(F)F)cc2F)c[nH]1 [Cpd 277, N-[2,5-difluoro-4-(trifluoromethyl)phenyl]-5-(3-methylimidazol-4-yl)-1H-pyrrole-3-sulfonamide]
< 500 nM	O=S(=O)(Nc1cc(F)c(C(F)(F)F)cc1F)c1c[nH]c(-c2ccsn2)c1 [Cpd 278, N-[2,5-difluoro-4-(trifluoromethyl)phenyl]-5-isothiazol-3-yl-1H-pyrrole-3-sulfonamide]
500 to 5000 nM	Cc1cccc(-c2cc(S(=O)(=O)Nc3cc(F)c(C(F)(F)F)cc3F)c[nH]2)n1 [Cpd 279, N-[2,5-difluoro-4-(trifluoromethyl)phenyl]-5-(6-methyl-2-pyridyl)-1H-pyrrole-3-sulfonamide]
500 to 5000 nM	Cc1ccc(-c2cc(S(=O)(=O)Nc3cc(F)c(C(F)(F)F)cc3F)c[nH]2)nc1 [Cpd 280, N-[2,5-difluoro-4-(trifluoromethyl)phenyl]-5-(5-methyl-2-pyridyl)-1H-pyrrole-3-sulfonamide]
< 500 nM	COc1cccc(-c2cc(S(=O)(=O)Nc3cc(F)c(C(F)(F)F)cc3F)c[nH]2)n1 [Cpd 281, N-[2,5-difluoro-4-(trifluoromethyl)phenyl]-5-(6-methoxy-2-pyridyl)-1H-pyrrole-3-sulfonamide]
5000 to 50000 nM	O=S(=O)(Nc1cc(F)c(C(F)(F)F)cc1F)c1c[nH]c(-c2ncccc2C(F)(F)F)c1 [Cpd 282, N-[2,5-difluoro-4-(trifluoromethyl)phenyl]-5-[3-(trifluoromethyl)-2-pyridyl]-1H-pyrrole-3-sulfonamide]
5000 to 50000 nM	COc1cccc(-c2cc(S(=O)(=O)Nc3ccc(C#N)cc3F)c[nH]2)c1C [Cpd 283, N-(4-cyano-2-fluoro-phenyl)-5-(3-methoxy-2-methyl-phenyl)-1H-pyrrole-3-sulfonamide]
500 to 5000 nM	N#Cc1ccc(NS(=O)(=O)c2c[nH]c(-c3ccc(F)c(Cl)c3)c2)c(F)c1 [Cpd 284, 5-(3-chloro-4-fluoro-phenyl)-N-(4-cyano-2-fluoro-phenyl)-1H-pyrrole-3-sulfonamide]
< 500 nM	Cc1ccc(F)cc1-c1cc(S(=O)(=O)Nc2ccc(C#N)cc2F)c[nH]1 [Cpd 285, N-(4-cyano-2-fluoro-phenyl)-5-(5-fluoro-2-methyl-phenyl)-1H-pyrrole-3-sulfonamide]
500 to 5000 nM	Cc1cc(NS(=O)(=O)c2c[nH]c(-c3ccccn3)c2)c(F)cc1C#N [Cpd 286, N-(4-cyano-2-fluoro-5-methyl-phenyl)-5-(2-pyridyl)-1H-pyrrole-3-sulfonamide]
500 to 5000 nM	N#Cc1ccc(NS(=O)(=O)c2c[nH]c(-c3ccc(Cl)c(F)c3)c2)c(F)c1 [Cpd 287, 5-(4-chloro-3-fluoro-phenyl)-N-(4-cyano-2-fluoro-phenyl)-1H-pyrrole-3-sulfonamide]
500 to 5000 nM	Cc1cc(F)cc(-c2cc(S(=O)(=O)Nc3ccc(C#N)cc3F)c[nH]2)c1 [Cpd 288, N-(4-cyano-2-fluoro-phenyl)-5-(3-fluoro-5-methyl-phenyl)-1H-pyrrole-3-sulfonamide]
< 500 nM	N#Cc1ccc(NS(=O)(=O)c2c[nH]c(-c3c(F)cccc3Cl)c2)c(F)c1 [Cpd 289, 5-(2-chloro-6-fluoro-phenyl)-N-(4-cyano-2-fluoro-phenyl)-1H-pyrrole-3-sulfonamide]
< 500 nM	COc1c(F)cccc1-c1cc(S(=O)(=O)Nc2ccc(C#N)cc2F)c[nH]1 [Cpd 290, N-(4-cyano-2-fluoro-phenyl)-5-(3-fluoro-2-methoxy-phenyl)-1H-pyrrole-3-sulfonamide]

IC50	SMILES
500 to 5000 nM	N#Cc1ccc(NS(=O)(=O)c2c[nH]c(-c3ccc(F)c(F)c3)c2)c(F)c1 [Cpd 291, N-(4-cyano-2-fluoro-phenyl)-5-(3,4-difluorophenyl)-1H-pyrrole-3-sulfonamide]
500 to 5000 nM	N#Cc1ccc(NS(=O)(=O)c2c[nH]c(-c3cccc(Cl)c3Cl)c2)c(F)c1 [Cpd 292, N-(4-cyano-2-fluoro-phenyl)-5-(2,3-dichlorophenyl)-1H-pyrrole-3-sulfonamide]
5000 to 50000 nM	Cc1ccc(-c2cc(S(=O)(=O)Nc3cc(F)c(C(F)(F)F)cc3F)c[nH]2)c(F)c1 [Cpd 293, N-[2,5-difluoro-4-(trifluoromethyl)phenyl]-5-(2-fluoro-4-methyl-phenyl)-1H-pyrrole-3-sulfonamide]
5000 to 50000 nM	COc1ccc(-c2cc(S(=O)(=O)Nc3cc(F)c(C(F)(F)F)cc3F)c[nH]2)cc1 [Cpd 294, N-[2,5-difluoro-4-(trifluoromethyl)phenyl]-5-(4-methoxyphenyl)-1H-pyrrole-3-sulfonamide]
5000 to 50000 nM	Cc1ccc(-c2cc(S(=O)(=O)Nc3cc(F)c(C(F)(F)F)cc3F)c[nH]2)cc1 [Cpd 295, N-[2,5-difluoro-4-(trifluoromethyl)phenyl]-5-(p-tolyl)-1H-pyrrole-3-sulfonamide]
500 to 5000 nM	Cc1ccc(Cl)cc1-c1cc(S(=O)(=O)Nc2ccc(C#N)cc2F)c[nH]1 [Cpd 296, 5-(5-chloro-2-methyl-phenyl)-N-(4-cyano-2-fluoro-phenyl)-1H-pyrrole-3-sulfonamide]
5000 to 50000 nM	O=S(=O)(Nc1cc(F)c(C(F)(F)F)cc1F)c1c[nH]c(-c2ccc(Cl)cc2)c1 [Cpd 297, 5-(4-chlorophenyl)-N-[2,5-difluoro-4-(trifluoromethyl)phenyl]-1H-pyrrole-3-sulfonamide]
500 to 5000 nM	COc1ccccc1-c1cc(S(=O)(=O)Nc2cc(F)c(C(F)(F)F)cc2F)c[nH]1 [Cpd 298, N-[2,5-difluoro-4-(trifluoromethyl)phenyl]-5-(2-methoxyphenyl)-1H-pyrrole-3-sulfonamide]
500 to 5000 nM	COc1cc(F)cc(-c2cc(S(=O)(=O)Nc3ccc(C#N)cc3F)c[nH]2)c1 [Cpd 299, N-(4-cyano-2-fluoro-phenyl)-5-(3-fluoro-5-methoxy-phenyl)-1H-pyrrole-3-sulfonamide]
500 to 5000 nM	COc1ccc(-c2cc(S(=O)(=O)Nc3ccc(C#N)cc3F)c[nH]2)c(Cl)c1 [Cpd 300, 5-(2-chloro-4-methoxy-phenyl)-N-(4-cyano-2-fluoro-phenyl)-1H-pyrrole-3-sulfonamide]
500 to 5000 nM	O=S(=O)(Nc1cc(F)c(C(F)(F)F)cc1F)c1c[nH]c(-c2cccc(F)c2F)c1 [Cpd 301, 5-(2,3-difluorophenyl)-N-[2,5-difluoro-4-(trifluoromethyl)phenyl]-1H-pyrrole-3-sulfonamide]
< 500 nM	O=S(=O)(Nc1cc(F)c(C(F)(F)F)cc1F)c1c[nH]c(-c2cscn2)c1 [Cpd 302, N-[2,5-difluoro-4-(trifluoromethyl)phenyl]-5-thiazol-4-yl-1H-pyrrole-3-sulfonamide]
500 to 5000 nM	Cc1ccnc(-c2cc(S(=O)(=O)Nc3cc(F)c(C(F)(F)F)cc3F)c[nH]2)c1 [Cpd 303, N-[2,5-difluoro-4-(trifluoromethyl)phenyl]-5-(4-methyl-2-pyridyl)-1H-pyrrole-3-sulfonamide]
500 to 5000 nM	COc1ccc(-c2cc(S(=O)(=O)Nc3cc(F)c(C(F)(F)F)cc3F)c[nH]2)nc1 [Cpd 304, N-[2,5-difluoro-4-(trifluoromethyl)phenyl]-5-(5-methoxy-2-pyridyl)-1H-pyrrole-3-sulfonamide]
500 to 5000 nM	COc1ccnc(-c2cc(S(=O)(=O)Nc3cc(F)c(C(F)(F)F)cc3F)c[nH]2)c1 [Cpd 305, N-[2,5-difluoro-4-(trifluoromethyl)phenyl]-5-(4-methoxy-2-pyridyl)-1H-pyrrole-3-sulfonamide]
500 to 5000 nM	Cc1cccc(Cc2c[nH]cc2S(=O)(=O)Nc2ccc(C#N)cc2F)c1 [Cpd 306, N-(4-cyano-2-fluoro-phenyl)-4-(m-tolylmethyl)-1H-pyrrole-3-sulfonamide]
500 to 5000 nM	N#Cc1ccc(NS(=O)(=O)c2c[nH]cc2Cc2cccc(C(F)(F)F)c2)c(F)c1 [Cpd 307, N-(4-cyano-2-fluoro-phenyl)-4-[[3-(trifluoromethyl)phenyl]methyl]-1H-pyrrole-3-sulfonamide]
500 to 5000 nM	N#Cc1ccc(NS(=O)(=O)c2c[nH]cc2Cc2cccc(OC(F)(F)F)c2)c(F)c1 [Cpd 308, N-(4-cyano-2-fluoro-phenyl)-4-[[3-(trifluoromethoxy)phenyl]methyl]-1H-pyrrole-3-sulfonamide]
< 500 nM	N#Cc1ccc(NS(=O)(=O)c2c[nH]cc2Cc2cccc(OC(F)F)c2)c(F)c1 [Cpd 309, N-(4-cyano-2-fluoro-phenyl)-4-[[3-(difluoromethoxy)phenyl]methyl]-1H-pyrrole-3-sulfonamide]
